According to patent US20250186656A1, “SHAPE MORPHING HYDROGEL ACTUATORS AND CONSTRUCTS” (Case Western Reserve University, priority 2022, published 2025):

What was measured:
[1] = test system: NIH 3T3 cell-laden bilayer constructs (cell-generated forces, actin polymerization); experiment: Cytochalasin D treatment of cell-laden bilayer constructs; assay type: cell-based
Text: To accomplish bilayer printing, two syringes were loaded into the 3D printer: the first contained only reconstituted OMA microgels (cell-free bioink); the second contained the cell-laden bioink. For bilayer rectangles, a 25 mm×25 mm×0.2 mm square was printed with the cell-free bioink. Three cell-laden rectangles measuring 18 mm×4 mm×0.6 mm were then printed directly on top of the cell-free square, spaced 4 mm apart. After crosslinking constructs with UV light, the cell-free layer was cut with a razor blade to match the geometry of the cell-laden rectangles, forming bilayer rectangles. Dead controls were generated by incubating cells in acetone for 30 minutes before forming the cell-laden bioink.
To further illustrate the role of cell-generated forces in the observed spatiotemporal changes, the effect of Cytochalasin D, a known inhibitor of actin polymerization, was studied. Cytochalasin D was weighed and dissolved in sterile dimethyl sulfoxide (DMSO) at a concentration of 5 mM and stored at 4° C. Bilayer rectangles were printed and cultured in culture media supplemented with 0.1% v/v Cytochalasin D, resulting in a final Cytochalasin D concentration of 5 μM. Half of the media was replaced every day, with fresh Cytochalasin D added at 0.1% v/v each time. To ensure that any change in behavior is being caused by Cytochalasin D and not DMSO, four bilayer rectangles were cultured in culture media with 0.1% v/v DMSO. These media conditions were also compared to bilayer rectangles cultured in normal culture media.
After culture duration was complete, samples were fixed overnight in 10% neutral buffered formalin at room temperature. Samples were then dehydrated through one-hour incubations in 70% ethanol, 95% ethanol, 100% ethanol, 1:1 mixture of ethanol and xylenes, and two separate 100% xylenes. Samples were then submerged in molten paraffin for at least 24 hours before being embedded in paraffin blocks. 5-μm sections were obtained from blocks using a microtome and mounted on microscope slides. Hematoxilyn and eosin (H&E) sections were stained with hematoxilyn for 2 minutes followed by counterstaining with eosin for 30 seconds. Safrananin O and fast green sections were stained with 0.1% Safranin O for 5 minutes followed by counterstaining with 0.05% fast green for 1 minute. Alcian blue and nuclear fast red sections were stained with alcian blue ([…]) for 30 minutes followed by counterstaining with nuclear fast red for 5 minutes.
Dissection microscope images were used to measure bending angle as described in FIG. 72. Briefly, a circle with crosshairs was superimposed on each image using Microsoft Powerpoint. […] Using this method, a construct that has bent into a half circle is measured as 180 degrees, while a construct whose ends are touching is measured as 360 degrees. […]

[2] = test system: cells; experiment: Cytocompatibility of UV absorber HMAP (cell viability); assay type: cell-based; conditions: all the tested concentrations

SMILES | macroscopic shape change of bilayer constructs ([1]; 5 μM in growth medium, over duration of culture (14 days)) | cell death (live/dead) ([1]; 5 μM, day 14) | cell morphology (live/dead images) ([1]; 5 μM, day 14) | fibrous border formation (H&E histology) ([1]; 5 μM, day 14) | cell viability [2] [%]
C=C1[C@@H](C)[C@H]2[C@H](Cc3ccccc3)NC(=O)[C@]23[C@H](OC(C)=O)/C=C/[C@@](C)(O)C(=O)[C@@H](C)C/C=C/[C@H]3[C@@H]1O [Cytochalasin D] | no macroscopic changes in shape | no sign of cell death | more rounded | unable to form this fibrous border | 
CC(=O)c1ccc(O)c(C)c1 [HMAP, 4′-hydroxy-3′-methylacetophenone] |  |  |  |  | > 90
